Measurements from patent US3931143A, “Unsymmetrical aliphatic monoazo compounds” (priority 1971, dated 1976).
Like-named read-outs stand apart in the source and are kept apart here.

How the values were obtained:
[1] = for temperature of 10 hour half-life: in trichlorobenzene; for 10 hr. t1/2 temp.: Table II, solvent not given; for t1/2: trichlorobenzene
[2] = Stability in unsaturated polyester-styrene resin at room temperature; type: physicochemical; details: unsaturated polyester-styrene resin of Example III
Experimental: An unsaturated polyester resin was made by reacting maleic anhydride (1.0 mole), phthalic anhydride (1.0 mole), and propylene glycol (2.2 moles) until an acid number of 45-50 was obtained. To this was added hydroquinone at a 0.013% concentration. Seven parts of this unsaturated polyester was diluted with 3 parts of monomeric styrene to obtain a homogeneous blend having a viscosity of 13.08 poise and a specific gravity of 1.14.

[3] = Solubility in petroleum / hydrocarbon / common organic solvents; details: even at temperatures as low as -20°C
[4] = Thermal decomposition half-life in odorless mineral spirits; type: physicochemical
[5] = Thermal decomposition half-life in water; type: physicochemical
[6] = Preliminary toxicological studies compared with AIBN
Description: In general, the new compositions of the present invention eliminate these problems. The tertiary-(alkyl, cycloalkyl, bicycloalkyl or aralkyl) group on the one side of the azo function lowers the melting point of these compounds so that most of them are liquids or low melting solids which can be handled in the melted state. In addition, this tertiary group increases the solubility of these azos so that most of them are completely miscible with the common organic solvents including petroleum hydrocarbons. Thus, no dusting, metering, incorporating, mixing, and dispersing problems are encountered in using these new compositions. […] The less toxic nature of the new compositions coupled with their liquid and high solubility properties allows them to be used in many applications where AIBN cannot be used.

rat = details: in rat; decomposition residue of AIBN; cited from earlier work

SMILES	temperature of 10 hour half-life [1]	other results
CC(C)CC(C)(C#N)N=NC(C)(C)C (stereo not drawn) [Example XXXII, 2-t-Butylazo-2-cyano-4-methylpentane]	approximately 70 °C	period stable in the resin [2]: exceeding 1 month
CC1(N=NC2(C#N)CCCCC2)CCCCC1 [LXII, 1-t-(Methylcyclohexyl)azo-1-cyanocyclohexane]	approximately 100 °C	–
CC(C)(C)N=NC(C)(C#N)COC(=O)C(C)(C)C (stereo not drawn) [2-t-Butylazo-2-cyano-1-pivaloyloxypropane]	approximately 75 °C	–
CC(C)CC(C)(C#N)N=NC(C)(C)c1ccccc1 (stereo not drawn) [Example LVII, 2-t-Cumylazo-2-cyano-4-methylpentane]	approximately 33 °C	–
CCC(C)(C#N)N=NC(C)(C)C (stereo not drawn) [Example VI, 2-t-Butylazo-2-cyanobutane]	around 80 °C	solubility in hydrocarbon solvents [3]: very soluble; temperature of 10 hour half-life [4]: around 82 °C
CC(C)(C)N=NC(C)(C#N)CCC(=O)O (stereo not drawn) [Example X, 4-t-Butylazo-4-cyanovaleric Acid]	76 °C	temperature of 10 hour half-life [5]: 73 °C
CC(C)(C)N=NC1(C#N)CCCCCCC1 [Example 1-t-Butylazo-1-cyanocyclooctane, 1-t-Butylazo-1-cyanocyclooctane]	approximately 55 °C	–
CC(C)(N=NC1(C#N)CCCCC1)c1ccccc1 [Example LVI, 1-t-Cumylazo-1-cyanocyclohexane]	approximately 62.5 °C	–
CCC(C)(C)N=NC1(C#N)CCCCC1 [XV, 1-t-Amylazo-1-cyanocyclohexane]	approximately 94 °C	–
CC(C)(C)N=NC1(C#N)C(C)(C)C(=O)C1(C)C [XLIII, 3-t-butylazo-3-cyano-2,2,4,4-tetramethylcyclobutanone]	–	10 hr. t1/2 temp. [1]: 115 °C
CC(C)(C)CC(C)(C#N)N=NC(C)(C)C (stereo not drawn) [XLI, 2-t-butylazo-2-cyano-4,4-dimethylpentane]	–	10 hr. t1/2 temp. [1]: 52 °C
CC(C)CC(C#N)(CC(C)C)N=NC(C)(C)C [Example VII, 4-t-Butylazo-4-cyano-2,6-dimethylheptane]	61 °C	–
COC(C)(C)CC(C)(C#N)N=NC(C)(C)C (stereo not drawn) [Example XXXIV, 2-t-Butylazo-2-cyano-4-methoxy-4-methylpentane]	approximately 55 °C	–
CCC(C)(C)N=NC(C)(C)C#N [XIV, 2-t-Amylazo-2-cyanopropane]	79 °C	–
CC(C)(C)N=NC(C)(C#N)C1CC1 (stereo not drawn) [1-t-Butylazo-1-cyano-1-cyclopropylethane]	62 °C	–
CC(C)CCC(C)(C#N)N=NC(C)(C)C (stereo not drawn) [2-t-Butylazo-2-cyano-5-methylhexane]	approximately 78 °C	–
CC(C)(C#N)N=NC(C)(C)c1ccccc1 [Example XII, 2-t-Cumylazo-2-cyanopropane]	50 °C	–
CC(C)(C)N=NC(C)(C)C(N)=NO [2-t-Butylazo-2-methylpropionamidoxime]	approximately 90 °C	–
CC1CC(C)(C)CC(C#N)(N=NC(C)(C)C)C1 (stereo not drawn) [Example VIII, 1-t-Butylazo-1-cyano-3,3,5-trimethylcyclohexane]	78 °C	–
CC(C)(C)N=NC(C)(C#N)C(C)(C)C (stereo not drawn) [IX, 2-t-Butylazo-2-cyano-3,3-dimethylbutane]	80 °C	–
CC(C)(C)N=NC1(C#N)CCCCCC1 [Example 1-t-Butylazo-1-cyanocycloheptane, 1-t-Butylazo-1-cyanocycloheptane]	approximately 68 °C	–
CC(C)(C)N=NC1(C#N)CCCCC1 [Example V, 1-t-Butylazo-1-cyanocyclohexane]	96 °C	t1/2 ([1]; 96.3 °C): 10.0 h; t1/2 ([1]; 100 °C): 6.7 h; t1/2 ([1]; 110 °C): 2.3 h; t1/2 ([1]; 120 °C): 0.75 h
CC(C)(C)N=NC(C)(C#N)c1ccccc1 (stereo not drawn) [XLII, 1-t-butylazo-1-cyano-1-phenylethane]	–	10 hr. t1/2 temp. [1]: ~ 30 °C
CC(C)(C)N=NC(C)(C)C(N)=O [Example LXIV, 2-t-Butylazo-2-carbamylpropane]	110 °C	–
CC(C)(C)N=NC1(C(N)=O)CCCCC1 [LXIII, 1-t-Butylazo-1-carbamylcyclohexane]	111 °C	–
CCCCCCC(C)(C#N)N=NC(C)(C)C (stereo not drawn) [LI, 2-t-butylazo-2-cyanooctane]	–	10 hr. t1/2 temp. [1]: 79 °C
CC(C)C(=O)OCC(C)(C#N)N=NC(C)(C)C (stereo not drawn) [2-t-Butylazo-2-cyano-1-isobutyroyloxypropane]	approximately 79 °C	–
CC(C)(C)N=NC(C)(C)C#N [Example I, 2-t-Butylazo-2-cyanopropane]	79 °C	t1/2 ([1]; 70 °C): 40.5 h; t1/2 ([1]; 78.8 °C): 10.0 h; t1/2 ([1]; 90 °C): 2.0 h; t1/2 ([1]; 100 °C): 0.54 h; t1/2 ([1]; 110 °C): 0.20 h; toxicity compared with AIBN [6]: significantly less toxic than AIBN; temperature of 10 hour half-life [4]: 86 °C
CC(C)(C)N=NC(C)(C#N)COC(=O)c1ccccc1 (stereo not drawn) [2-t-Butylazo-2-cyano-1-benzoyloxypropane]	approximately 77 °C	–
CC(C)(C#N)C(C)(C)C#N [2,2,3,3-tetramethylsuccinonitrile]	–	LD50 (rat): 30 mg/kg
